Laboratory results published in US9458200B2, “Method for producing intermediates for the production of novel macrocycles that are inhibitors of the proteasomic degradation of p27, such as argyrin and derivatives thereof, and uses of said macrocycles” (Gottfried Wilhelm Leibniz Universität Hannover, priority 2008, dated 2016).
Values after ≈ are worked out from the molar mass of the structure shown. Starred links: 1 amine or outer side, 2 acyl side, 3 side chain; linkers in the order of their positions; H or OH if unused. Non-standard residues stand in square brackets, D forms with d. Residues, ends and D or L forms follow the SMILES beside them. Trp(4-OMe) = COc1cccc2[nH]cc(C[C@H](N)C(=O)O)c12; X1 = O=C(c1csc([C@@H](CO)N[*:1])n1)[*:2]; Dha = C=C(N)C(=O)O; Sar = CNCC(=O)O

Assays:
[1] = target: T1, erythrocyte-derived 20S proteasome, trypsin-like activity (Homo sapiens, UniProt P49720+Q99436); test: 20S-Proteasome-Test (manual), trypsin-like substrate; type: biochemical
T1 construct: using erythrocyte-derived 20S proteasome; purchased Biomol International PW8720; host or cells: human erythrocytes
Procedure: (§1) Proteasome assays with purified 20S proteasome were performed as previously described (Lightcap, E. S. et al. Proteasome inhibition measurements: clinical application. Clin Chem 46, 673-83 (2000)) using erythrocyte-derived 20S proteasome (Biomol International,#LP PW8720) and fluorometric substrates Succ-LLVY-AMC, BZ-VGR-AMC and Z-Lle-AMC (Biomol International, LP PW9905) as probes according to the manufacturers instructions. Proteasome extraction from cells and tumor sections was done as previously described (Crawford, L. J. et al. Comparative selectivity and specificity of the proteasome inhibitors BzLLLCOCHO, PS-341, and MG-132. Cancer Res 66, 6379-86 (2006)). Briefly cells (MEF or MCF-7) or tissue sample homogenate (tumor sections) were re-suspended in 1 mL ATP/DTT lysis buffer (10 mmol/L Tris-HCl (pH7.8), 5 mmol/L ATP, 0.5 mmol/L DTT, 5 mmol/L MgCl2), and incubated on ice for 10 minutes, followed by sonication for 15 seconds. The lysates were centrifuged at 400×g for 10 min at 4° C., and the resulting supernatant containing proteasomes was stable at −80° C. with the addition of 20% glycerol for at least 1 month. Protein concentration of the samples was measured using a coomassie protein assay (Pierce, Rockford, Ill.).
(§2) Proteasome assays with purified 20S proteasome were performed as previously described (Lightcap et al., 2000) using erythrocyte-derived 20S proteasome (Biomol International,#LP PW8720) and fluorometric substrates Succ-LLVY-AMC, BZ-VGR-AMC and Z-Lle-AMC (Biomol International, LP PW9905). Proteasome extraction from cells and tumor sections was done as previously described (Crawford et al., 2006). For proteasome extraction from whole blood, frozen whole blood cell pellets were thawed and lysed in 2-3 pellet volumes cold lysis buffer (5 mM EDTA, pH 8.0). […] The rate of cleavage of fluorogenic peptide substrates was determined by monitoring the fluorescence of released aminomethylcoumarin using a Victor 1420 Multilabel counter (Wallac) at an excitation wavelength of 395 nm and emission wavelength of 460 nm over a period of 60 min. […]

SW-480 (colon cancer) = test: MIC (visual), serial dilution, SW-480 cells; type: cell-based; details: minimal concentration of a serial dilution exhibiting a visual effect
From the text: (§3) The following table summarizes the effects of […]-derivatives B and F on two cancer cell lines, H15 (cervix carcinoma) and SW-480 (colon cancer). In order to test the efficacy, a p27-GFP-clone was used. [table]

[2] = test system: H15GFP-p27 clone (HeLa-cell line; cervix-carcinoma); test: GFP-fluorescence per FACS of p27-GFP clone H15GFP-p27; type: cell-based; details: GFP-fluorescence per FACS after 24 h incubation, 500 ng/ml
From the text: as §3

H15 (cervix carcinoma) = test: MIC (visual), serial dilution, H15 cells; type: cell-based; details: minimal concentration of a serial dilution exhibiting a visual effect
From the text: as §3

[3] = test system: SW-480 (colon cancer cell line); test: MTT-test, proliferation of SW-480; type: cell-based
Procedure: MTT assays were done as previously described (Sasse, F. et al. Argyrins, immunosuppressive cyclic peptides from myxobacteria. I. Production, isolation, physico-chemical and biological properties. J Antibiot (Tokyo) 55, 543-51 (2002)). TUNEL staining of tissue sections was performed on 10 micrometer sections which were deparafinised and treated as recommended by the manufacturer. (In Situ Cell Death Detection Kit, Fluorescein; ROCHE, Cat #11 684 795 910). Flow cytometric analysis of cultured cells was done using a Becton Dickinson fluorescence cytometer as previously described (Malek, N.P. et al. A mouse knock-in model exposes sequential proteolytic pathways that regulate p27^Kip1 in G1 and S phase. Nature 413, 323-7 (2001)). Analysis of the distribution of cells in the cell cycle and the sub-G1 fraction was done using Cell Quest software. A histone-associated-DNA-fragments ELISA was used to determine the number of apoptotic cells according to manufacturers instructions (Roche #11 774425001).

[4] = target: T2, erythrocyte-derived 20S proteasome, caspase-like activity (Homo sapiens, UniProt P28072+Q99436); test: 20S-Proteasome-Test (manual), caspase-like substrate; type: biochemical
T2 construct: using erythrocyte-derived 20S proteasome; purchased Biomol International PW8720; host or cells: human erythrocytes
Procedure: as §1, §2

[5] = target: T3, erythrocyte-derived 20S proteasome, chymotrypsin-like activity (Homo sapiens, UniProt P20618+P28074); test: 20S-Proteasome-Test (manual), chymotrypsin-like substrate; type: biochemical
T3 construct: using erythrocyte-derived 20S proteasome; purchased Biomol International PW8720; host or cells: human erythrocytes
Procedure: as §1, §2

20S proteasome = test system: T4, 20S proteasome; test: Proteasome-assay, overall comparison in words (all three subunits); type: biochemical, human; details: compared with argyrin F
T4 construct: using erythrocyte-derived 20S proteasome; purchased Biomol International PW8720; host or cells: human erythrocytes
Procedure: as §1
Proteasome assays with purified 20S proteasome were performed as previously described (Lightcap et al., 2000) using erythrocyte-derived 20S proteasome (Biomol International,#LP PW8720) and fluorometric substrates Succ-LLVY-AMC, BZ-VGR-AMC and Z-Lle-AMC (Biomol International, LP PW9905). Proteasome extraction from cells and tumor sections was done as previously described (Crawford et al., 2006). For proteasome extraction from whole blood, frozen whole blood cell pellets were thawed and lysed in 2-3 pellet volumes cold lysis buffer (5 mM EDTA, pH 8.0). Lysates were spun down at 4° C. and the supernatant was transferred to a fresh tube. 5 μl was taken for the determination of protein concentration using a coomassie protein assay (Pierce, Rockford, Ill.). Proteasome assays using proteasome purified from cells or tissues were carried out in a 100 μL reaction volume containing 20 μg proteasome extract, 50 mmol/L EDTA and 60 μmol/L fluorogenic substrate (chymotrypsin-like(CT-L), trypsin-like(T-L) or caspase-like (C-L)) in ATP/DTT lysis buffer at 37° C. The assay buffer was supplemented with a final concentration of 0.05% SDS for the evalution of the chymotrypsin-like activity and caspase-like activity. The rate of cleavage of fluorogenic peptide substrates was determined by monitoring the fluorescence of released aminomethylcoumarin using a Victor 1420 Multilabel counter (Wallac) at an excitation wavelength of 395 nm and emission wavelength of 460 nm over a period of 60 min.

rel. activ. in % after 20 min. ([1]; conc. in test 200 μmol/L) [%] | IC50 ([3]; Homo sapiens, SW480, half-maximal inhibition of proliferation, read-out: IC-50 SW-480) [µg/mL] | rel. activ. in % after 20 min. ([4]; conc. in test 200 μmol/L) [%] | rel. activ. in % after 20 min. ([5]; conc. in test 200 μmol/L) [%] | Compound | MIC (visual) SW-480 (SW-480 (colon cancer)) [µg/mL] | Mean of FSC-H (Log) H15 p27-GFP-clone [2] | MIC (visual) HIS (H15 (cervix carcinoma)) [µg/mL] | rel. activ. in % after 20 min. ([1]; conc. in test 100 μmol/L) [%] | inhibiting effect on the proteasome, compared in words (20S proteasome) | inhibiting effect on the proteasome, compared in words (20S proteasome; listed as Argyrin Ala alpha) | rel. activ. in % after 20 min. ([4]; conc. in test 100 μmol/L) [%] | rel. activ. in % after 20 min. ([5]; conc. in test 100 μmol/L) [%] | inhibiting effect on the proteasome, compared in words (20S proteasome; listed as argyrin Ala beta) | IC-50 SW-480 ([3]; half-maximal inhibition of proliferation)
32 | 0.05 (≈ 0.0595 µM) | 17 | 15 | C=C1NC(=O)[C@@H](C)NC(=O)CNC(=O)[C@H](Cc2c[nH]c3cccc(OC)c23)NC(=O)[C@H](Cc2c[nH]c3ccccc23)NC(=O)c2csc(n2)[C@@H](CO)NC(=O)CN(C)C1=O [Argyrin F] (cyclo([Dha][Sar][X1]W[Trp(4-OMe)]G[dA])) | 0.2 (≈ 0.238 µM) | 11.24 | 0.5 (≈ 0.595 µM) | – | – | – | – | – | – | –
– | – | – | – | C=C1NC(=O)[C@@H](C)NC(=O)[C@@H](C)NC(=O)[C@H](Cc2c[nH]c3cccc(OC)c23)NC(=O)[C@H](Cc2c[nH]c3ccccc23)NC(=O)c2csc(n2)[C@@H](CO)NC(=O)CN(C)C1=O [Argyrin ala alpha] (cyclo([Dha][Sar][X1]W[Trp(4-OMe)][dA][dA])) | – | – | – | 72 | higher activities than Argyrin F | slightly less active | 11 | 17 | – | –
– | – | – | – | C=C1NC(=O)[C@@H](C)NC(=O)[C@H](C)NC(=O)[C@H](Cc2c[nH]c3cccc(OC)c23)NC(=O)[C@H](Cc2c[nH]c3ccccc23)NC(=O)c2csc(n2)[C@@H](CO)NC(=O)CN(C)C1=O [Argyrin ala beta] (cyclo(A[dA][Dha][Sar][X1]W[Trp(4-OMe)])) | – | – | – | 26 | higher activities than Argyrin F | – | 7 | 8 | stronger inhibiting effect on the proteasome than argyrin F | –
– | – | – | – | Argyrin B | 12 | 7.60 | 12 | – | – | – | – | – | – | Ca. 0.05 μg/ml
